Test results: article PMC7749516, “Safety and nonclinical and clinical pharmacokinetics of PC945, a novel inhaled triazole antifungal agent” (Pharmacology Research & Perspectives, 2020)

How the values were obtained:
[1] = Clinical pharmacokinetics, single inhaled dose in subjects with mild asthma (Cohort 3); format: in vivo, human; details: single inhaled 5 mg
Source text: Part one consisted of a single dose escalation study (Cohort 1) and a repeat dose study (Cohort 2) of inhaled PC945 in healthy subjects. Part two comprised a single dose study of inhaled PC945 in subjects with mild asthma (Cohort 3). The doses selected were predicted to achieve target lung concentrations above the IC90/MIC90 for A. fumigatus (based on data from a range of in vitro and in vivo systems) throughout a 24‐hour period and with a suitable safety margin based on animal toxicology data.
In Cohort 3, nine subjects with mild asthma (six males and three females; mean age: 37.7 years, mean weight: 82.70 kg, mean BMI: 26.48 kg/m^2) received a single dose of PC945 5 mg or placebo (PC945:placebo = 2:1).
Serial blood samples were collected to determine plasma PC945 concentrations. For the single dose study in healthy subjects and in subjects with mild asthma, blood samples were collected predose and at 0.25, 0.5, 1, 2, 4, 6, 8, 24, 30, and 48 hours postend of inhalation and at the follow‐up visit. For the repeat dose study, blood samples were collected (a) predose and at 0.25, 0.5, 1, 2, 4, 6, 8, 10, 12, and 24 hours postend of inhalation on Days 1 and 7, and 30 and 48 hours on Day 7; (b) predose on Days 5 and 6; (c) at the follow‐up visit.

[2] = Toxicokinetics/toxicity in dogs, daily 2-hour inhalation for 14 days (plasma); details: for Ro (accumulation ratio): AUC0‐24h (Day14)/AUC0‐24h (Day 1)
Source text: Each dose was inhaled over a 2‐hour period once daily for 14 days.
Lower limit of quantification of the assay was 10 pg/mL for clinical samples and 100 pg/mL for rat and dog plasma samples.

[3] = Rat lung tissue concentration after 14 days of inhaled dosing; format: in vivo, rats (Han Wistar); details: for Lung concentration: lungs ~22 hours after final dose (Day 15)
Experimental: Portions of rat lung tissue were homogenized in methanol:water (50:50; 15 mL for 1 g tissue). PC945 concentrations in tissue homogenates were analyzed using LC‐MS/MS. A control rat lung sample (B&K Universal Ltd, Hull, UK) was used as standards and quality control.

[4] = female dogs, Day 14 of inhaled 1.7 mg/kg/day, mean
[5] = female dogs, Day 14 of inhaled 5.3 mg/kg/day, mean
[6] = female dogs, Day 14 of inhaled 18.1 mg/kg/day, mean
[7] = female dogs, single inhaled dose 1.7 mg/kg, mean ± SD
[8] = female dogs, single inhaled dose 5.3 mg/kg, mean ± SD
[9] = female dogs, single inhaled dose 18.1 mg/kg, mean ± SD
[10] = male dogs, Day 14 of inhaled 1.7 mg/kg/day, mean
[11] = male dogs, Day 14 of inhaled 5.3 mg/kg/day, mean
[12] = male dogs, Day 14 of inhaled 18.1 mg/kg/day, mean
[13] = male dogs, single inhaled dose 1.7 mg/kg, mean ± SD
[14] = male dogs, single inhaled dose 5.3 mg/kg, mean ± SD
[15] = male dogs, single inhaled dose 18.1 mg/kg, mean ± SD

Cc1cc(N2CCN(c3ccc(C(=O)Nc4ccc(F)cc4)cc3)CC2)ccc1OC[C@@H]1CO[C@@](Cn2cncn2)(c2ccc(F)cc2F)C1 [PC945]
AUC0–24h [1]: 4.95 ng·h/mL
median t max [1]: 4 h
C max ([1]; geometric mean): 0.335 ng/mL
Margin over the clinical AUC following a 5 mg dose ([2]; dog, highest dose tested): threefold
Time of C max after a single dose ([2]; dogs, after the 2‐hour dosing period): immediately
Systemic toxicity ([2]; dogs, highest dose tested): No systemic toxicity
Ro (accumulation ratio) ([2]; female dogs, 1.7 mg/kg/day): 2.27
Ro (accumulation ratio) ([2]; female dogs, 5.3 mg/kg/day): 1.88
Ro (accumulation ratio) ([2]; female dogs, 18.1 mg/kg/day): 1.26
AUC0‐24h [2, 4]: 27.7 ng·h/mL
C max [2, 4]: 2.3 ng/mL
AUC0‐24h [2, 5]: 73.3 ng·h/mL
C max [2, 5]: 5.5 ng/mL
AUC0‐24h [2, 6]: 114 ng·h/mL
C max [2, 6]: 7.8 ng/mL
AUC0‐24h [2, 7]: 12.2 ± 2.9 ng·h/mL
C max [2, 7]: 1.5 ± 0.5 ng/mL
AUC0‐24h [2, 8]: 39.0 ± 2.7 ng·h/mL
C max [2, 8]: 4.3 ± 0.7 ng/mL
AUC0‐24h [2, 9]: 90.6 ± 6.7 ng·h/mL
C max [2, 9]: 10.2 ± 1.3 ng/mL
Ro (accumulation ratio) ([2]; male dogs, 1.7 mg/kg/day): 2.06
Ro (accumulation ratio) ([2]; male dogs, 5.3 mg/kg/day): 1.84
Ro (accumulation ratio) ([2]; male dogs, 18.1 mg/kg/day): 2.29
AUC0‐24h [2, 10]: 35.5 ng·h/mL
C max [2, 10]: 2.8 ng/mL
AUC0‐24h [2, 11]: 70.9 ng·h/mL
C max [2, 11]: 5.6 ng/mL
AUC0‐24h [2, 12]: 203 ng·h/mL
C max [2, 12]: 13.5 ng/mL
AUC0‐24h [2, 13]: 17.2 ± 3.5 ng·h/mL
C max [2, 13]: 2.2 ± 0.3 ng/mL
AUC0‐24h [2, 14]: 38.5 ± 1.8 ng·h/mL
C max [2, 14]: 4.6 ± 0.4 ng/mL
AUC0‐24h [2, 15]: 88.5 ± 25.8 ng·h/mL
C max [2, 15]: 9.7 ± 2.4 ng/mL
Ratio lung tissue concentration (Day 15)/plasma C max (Day 14) ([3]; female rats, 2.0 mg/kg/day): 2610
Lung concentration ([3]; female rats, 2.0 mg/kg/day for 14 days): 50 100 ng/mL
Ratio lung tissue concentration (Day 15)/plasma C max (Day 14) ([3]; female rats, 7.1 mg/kg/day): 2740
Lung concentration ([3]; female rats, 7.1 mg/kg/day for 14 days): 138 000 ng/mL
Ratio lung tissue concentration (Day 15)/plasma C max (Day 14) ([3]; female rats, 16.6 mg/kg/day): 2340
Lung concentration ([3]; female rats, 16.6 mg/kg/day for 14 days): 216 000 ng/mL
Mean lung:plasma ratio ([3]; male rats): ~ 4300 fold
Ratio lung tissue concentration (Day 15)/plasma C max (Day 14) ([3]; male rats, 2.0 mg/kg/day): 3450
Lung concentration ([3]; male rats, 2.0 mg/kg/day for 14 days): 42 400 ng/mL
Ratio lung tissue concentration (Day 15)/plasma C max (Day 14) ([3]; male rats, 7.1 mg/kg/day): 5020
Lung concentration ([3]; male rats, 7.1 mg/kg/day for 14 days): 119 000 ng/mL
Ratio lung tissue concentration (Day 15)/plasma C max (Day 14) ([3]; male rats, 16.6 mg/kg/day): 4280
Lung concentration ([3]; male rats, 16.6 mg/kg/day for 14 days): 329 000 ng/mL
Lung concentration relative to plasma ([3]; rats, all dose levels, after 14‐day inhaled dosing): > 2000 fold
